# From ChEMBL document CHEMBL5365393, “Comprehensive coverage on anti-mycobacterial endeavour reported during 2022” (Eur J Med Chem, 2023)
# Calls of active or inactive are those of the source. The calls are words filed in the database; no cut-off is given here.
# Experiments:
# [1] = test system: Mycobacterium tuberculosis; experiment: Antibacterial activity against Mycobacterium tuberculosis H37Rv assessed as inhibition of bacterial growth; format: functional, organism-based
# [2] = test system: Mycobacterium tuberculosis; experiment: Antibacterial activity against Mycobacterium tuberculosis H37Rv assessed as inhibition of bacterial growth by microplate alamar blue assay; format: functional
# [3] = test system: Mycobacterium tuberculosis; experiment: Antibacterial activity against Mycobacterium tuberculosis H37Rv assessed as inhibition of bacterial growth by broth microdilution assay; format: functional
# [4] = test system: Staphylococcus aureus; experiment: Antibacterial activity against methicillin-resistant Staphylococcus aureus 693E assessed as inhibition of bacterial growth by broth microdilution assay; format: functional
# [5] = test system: Mycobacterium tuberculosis; experiment: Antibacterial activity against Mycobacterium tuberculosis H37Rv ATCC 27294 assessed as inhibition of bacterial growth; format: functional
# [6] = test system: Mycobacterium tuberculosis; experiment: Inhibition of Mycobacterium tuberculosis H37Rv mc2 6206 HadB/C expressed in Escherichia coli using trans-2-hexadecenoyl-coenzyme A as substrate by spectrophotometric analysis
# [7] = Inhibition of Mycobacterium tuberculosis H37Rv mc2 6206 HadA/B expressed in Escherichia coli using trans-2-hexadecenoyl-coenzyme A as substrate by spectrophotometric analysis
# [8] = Selectivity index, ratio of IC50 for cytotoxicity against African green monkey Vero cells to MIC for antibacterial activity against Mycobacterium tuberculosis H37Rv; format: toxicity, cell-based; details: read-out: Selectivity Index
# [9] = test system: Mycobacterium tuberculosis; experiment: Antibacterial activity against Mycobacterium tuberculosis H37Rv infected in Macrophage assessed as reduction in bacterial growth; format: functional
# [10] = Cytotoxicity against African green monkey Vero cells assessed as inhibition of cell growth; format: toxicity, cell-based; details: African green monkey (Chlorocebus sabaeus)
# [11] = target: DNA gyrase (Escherichia coli, UniProt P0AES4+P0AES6); experiment: Inhibition of Escherichia coli DNA gyrase; format: protein-complex assay
# [12] = test system: Mycobacterium tuberculosis; experiment: Antibacterial activity against drug susceptible Mycobacterium tuberculosis H37Rv assessed as inhibition of bacterial growth; format: functional
# [13] = Cytotoxicity against human WI-38 cells assessed as inhibition of cell growth by MTT assay; format: toxicity, cell-based
# [14] = test system: Mycobacterium tuberculosis; experiment: Antibacterial activity against Mycobacterium tuberculosis assessed as inhibition of bacterial growth by microplate alamar blue assay; format: functional
# [15] = target: T1, Enoyl-[acyl-carrier-protein] reductase [NADH] (Mycobacterium tuberculosis, UniProt P9WGR1); experiment: Inhibition of Mycobacterium tuberculosis InhA
# T1 sequence (P9WGR1 whole entry): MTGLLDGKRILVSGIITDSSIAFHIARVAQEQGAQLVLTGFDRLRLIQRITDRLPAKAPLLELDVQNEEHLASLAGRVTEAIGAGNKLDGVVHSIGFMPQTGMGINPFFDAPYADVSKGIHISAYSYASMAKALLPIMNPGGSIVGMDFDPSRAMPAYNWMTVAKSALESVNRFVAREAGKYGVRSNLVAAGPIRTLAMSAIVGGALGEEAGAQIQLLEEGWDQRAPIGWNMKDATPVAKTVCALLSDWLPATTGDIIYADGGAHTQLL
# [16] = test system: Mycobacterium tuberculosis; experiment: Antibacterial activity against drug-sensitive Mycobacterium tuberculosis assessed as inhibition of bacterial growth; format: functional
# [17] = Inhibition of Mycobacterium tuberculosis salicylate synthase using chorismic acid as substrate in presence of MgCl2 by fluorimetric assay
# [18] = test system: Mycobacterium tuberculosis; experiment: Antibacterial activity against Mycobacterium tuberculosis H37Rv assessed as inhibition of bacterial growth by resazurin dye based colorimetric analysis; format: functional, organism-based
structure (smiles),measurement,setting,value
COc1ccc(NC(=O)CCCCCN/C(C)=C2/C(=O)C=C3Oc4c(C(C)=O)c(O)c(C)c(O)c4[C@]3(C)C2=O)cc1OC,MIC,[1],5.3 µM
O=C(Nc1ccc(C(=O)O)c(O)c1)c1cncc(Cl)n1,MIC,[1],3.13 µg/mL
Cc1cc(C(=O)N2CCN(c3nc(=O)c4cc(Cl)cc([N+](=O)[O-])c4s3)CC2)c2cc(Cl)ccc2n1,MIC,[1],0.06 µg/mL
CC1/C(=N\NC(N)=[Se])Nc2ccccc21 (stereo not given),MIC,[2],1.6 µg/mL
CO[C@H]1C[C@@]2(C)C=C[C@H]3[C@H]4O[C@]2(/C(C)=C/[C@@H](C)[C@@H]([C@@H](C)O)OC1=O)[C@@H]3[C@H](O)[C@@H](C)[C@H]4OC(=O)c1ccc[nH]1,MIC,[3],12.5 µM
same,MIC,[4],0.6 µM
C/C(=N\NC(=S)Nc1cccc(Cl)c1Cl)c1nc2cc([N+](=O)[O-])ccc2[nH]1,MIC,[1],62.5 µg/mL
O=C(/C=C/c1cccc(Oc2ccccc2)c1)c1ccc(Br)cc1,MIC,[2],6.25 µg/mL
O=C1Nc2ccccc2/C1=N\OCc1cn(Cc2ccc(F)cc2)nn1,MIC,[5],0.78 µg/mL
O=C(c1ccc(Cl)cc1)C1[C@H]2CCCN2[C@]2(C(=O)Nc3ccc(Cl)cc32)C12c1ccccc1-n1c2nc2ccccc2c1=O (stereo not given in full),MIC,[1],1.56 µg/mL
CS(=O)(=O)NC(=O)CCc1cn(-c2ccc(Br)cc2)nc1-c1ccc(Cl)cc1,inhibition,[6],inactive
same,IC50,[7],130 nM
O=C1C(C#Cc2ccccc2)=C(c2ccc(C(F)(F)F)cc2)C(=O)N1Cc1ccccn1,MIC,[1],0.92 µg/mL
same,selectivity ratio,[8],69.6
same,Activity,[9],0.47 log10CFU
same,IC50,[10],> 64 µg/mL
Clc1ccc(Cn2cc(COc3ccc(C4=NCCO4)cc3)nn2)cc1,IC50,[1],1600 nM
same,IC50,[11],83 nM
Cc1cc(C(=O)N2CCN(c3nc(=O)c4cc(C(F)(F)F)cc([N+](=O)[O-])c4s3)CC2)c2cc(Br)ccc2n1,MIC,[1],0.12 µg/mL
CC(C)(C)OC(=O)N1CCN(c2ccc(N3C[C@H](CNC(=O)c4ccc([N+](=O)[O-])o4)OC3=O)cc2F)CC1,MIC,[1],2.34 µg/mL
CCCCCCc1ccc(-c2cn(CC(=O)Cn3ccnc3[N+](=O)[O-])nn2)cc1,MIC,[1],65.3 µM
COC(=O)c1cc(-c2ccc(OC)c(NC(=O)c3cc(-c4cccc(Cl)c4)nc4ccccc34)c2)on1,MIC,[12],0.12 µg/mL
O=C1C(Cl)=C(Cl)C2(OC(c3c(Cl)cccc3Cl)=NN2c2ccccc2)c2ccccc21 (stereo not given),MIC,[1],15.6 µg/mL
O=C(/C=C/c1cc(Cl)ccc1O)c1ccc(Br)cc1,MIC,[2],6.25 µg/mL
O=C(N/N=C1\C(=O)N(Cc2ccccc2)c2ccccc21)c1cnc2cc(Cl)ccc2c1O,IC50,[13],36600 nM
same,MIC,[14],0.06 µg/mL
O=C(/C=C/c1ccccc1)c1ccc(Br)cc1,MIC,[2],6.25 µg/mL
Cc1cc(C(=O)N2CCN(c3nc(=O)c4cc(Cl)cc([N+](=O)[O-])c4s3)CC2)c2cc(Br)ccc2n1,MIC,[1],0.06 µg/mL
O=C(/C=C/c1ccccc1[N+](=O)[O-])c1ccc(Br)cc1,MIC,[2],6.25 µg/mL
CCOC(=O)Cc1csc(N2C(=O)CSC2c2ccc(Br)cc2)n1 (stereo not given),IC50,[15],1060 nM
same,MIC,[16],0.48 µg/mL
N#Cc1cc(OCCOc2ccccc2)cc(-c2ccc(C(=O)O)o2)c1,IC50,[17],12100 nM
NNC(=O)c1ccncc1 [ISONIAZID],MIC,[1],15.6 µg/mL
same,MIC,[2],1.6 µg/mL
same,IC50,[18],1.6 µg/mL
